One molecule from patent US20060174366A1, “Use of ahas mutant genes as selection marker in potato transformation” (priority 2002, published 2006) can be followed below.

The subject of assay [1] is in vitro potato leaf segments. Nature of the assay: Effect of Imazamox on plant cell growth in tissue culture. It is filed as cell-based, Solanum tuberosum. The source says: Leaf segments are the explants of choice used in Agrobacterium mediated potato transformation. Transgenic plants are regenerated via direct or indirect organogenesis under selective conditions. Cytokinines as growth hormones are mainly involved in provoking cell division and adventitious bud formation in in vitro potato leaf segments. […] This phenomenon classifies Imazamox as a unique selection agent that is combining both lethality for non-transgenic cells and improved growth for transgenic cells.

The test system of assay [2] is Potato leaf segments of varieties Prevalent, Producent, Karnico and Desiree. Nature of the assay: Investigation of selection pressure: lethality of Imazamox concentrations on shoot regeneration from untransformed leaf segments. It is filed as cell-based, Solanum tuberosum. The method, then:
Potato leaf segments from in vitro propagated plants of four different potato varieties Prevalent, Producent, Karnico and Desiree were tested for natural tolerance on different concentrations of the imidazolinone herbicide Imazamox. It is important to choose a selection concentration at which the potato leaf tissue is viable long enough to regenerate shoots but have a high enough concentration to prevent the regeneration of untransformed shoots. Doses 0.1, 0.5, 1, 5, 10, 20, 30 and 50 μM Imazamox were tested.
Fully expended potato leaves are diagonally cut in 2 pieces and precultivated on MC-plates for 2 to 3 days at 23 to 24° C., see table 1.
The leaf tissues are transferred on MS300 medium for additional 2 days and cultivated under modest light at 23 to 24° C. simulating a co-cultivation step. Subsequently the leaf segments are moved to MS400 plates containing 400 mg/l Claforan. Claforan is added in order to suppress growth of Agrobacterium tumfaciens. Therefore the regeneration of shoots on different concentrations of Imazamox need to be monitored in presence of Claforan. Selection is taking place within 4 to 5 days when the explants are moved to MS400 medium supplemented with 400mg/l Claforan and Imazamox at above concentrations.
The explants are transferred to fresh selection medium every fortnight.
Leaf tissues were tested for the use of the AHAS resistance gene contained in SEQ ID No. 1 and for the selection of transgenic potato plant cells as described above. Four different potato cultivars Prevalent, Producent, Karnico and Desiree were cultivated on different concentrations of Imazamox, an imidazolinones type herbicides. It is essential to use the proper concentration for selection to yield an acceptable number of shoots per explant without high escape rate. The lethality of various Imazamox concentrations on regeneration was evaluated.
Lethal dose for regeneration was detected within 0.1 to 1 μM ranges of concentrations. Slight variation in lethality was detected between varieties. […]

Regarding `COCc1cnc(C2=NC(C)(C(C)C)C(=O)N2)c(C(=O)O)c1` (racemic) [Imazamox, (RS)-2-(4-isopropyl-4-methyl-5-oxo-2-imidazolin-2-yl)-5-methoxymethylnicotinic acid], the “effect in tissue culture” value in assay [1] (applied in low concentrations) was “cytokinine-like effect”; in assay [1] (at higher concentrations) it was “acting as an herbicide”. For the same molecule, the lethality in regeneration is listed as 80% in assay [2] (0.3 μM Imazamox) and 100% in assay [2] (0.5 μM Imazamox). For the same molecule, in assay [2] (0.5 μM Imazamox included in the medium), the Regeneration result is “No regeneration”.
